Test results published in US20240218066A1, “USE OF ANTI-PD-1 ANTIBODY IN COMBINATION WITH FIRST-LINE CHEMOTHERAPY IN TREATMENT OF ADVANCED NON-SMALL CELL LUNG CANCER” (SHANGHAI JUNSHI BIOSCIENCES CO., LTD., priority 2021, published 2024).

Tests used:
[1] = test system: patients with untreated advanced NSCLC; assay: Phase III clinical study, overall survival (OS); assay type: in vivo, human
Experimental: (§1) About 450 patients with advanced NSCLC not accompanied by EGFR-sensitive mutations and ALK fusions were randomly divided into two groups according to a 2:1 ratio, with the test group receiving toripalimab in combination with first-line standard chemotherapy and the control group receiving placebo in combination with first-line standard chemotherapy. Stratification was performed according to PD-L1 expression (TC≥1% vs TC<1%), smoking status (frequent smoking vs no smoking or little smoking), and pathological type (squamous cell carcinoma vs non-squamous cell carcinoma).
(§2) After randomization, the patients were subjected to treatment in the induction stage for 4-6 cycles, during which the patients received toripalimab/placebo+first-line standard chemotherapy. After the induction stage was over, the patients were subjected to treatment in the maintenance stage, during which patients with squamous cell carcinoma continued to receive toripalimab/placebo treatment until progressive disease, and patients with non-squamous cell carcinoma continued to receive toripalimab/placebo+pemetrexed treatment until progressive disease.
(§3) Unless otherwise specified, the efficacy analysis was based on the ITT set, which was analyzed by groups according to the treatment regimen to which patients were assigned at randomization.
For analysis of secondary efficacy endpoints OS, DOR, and TTR, the method described above as applied to the primary efficacy endpoint PFS was used. For ORR and DCR, the percentage of patients in each treatment group was calculated, and their 95% confidence intervals were calculated using the Clopper-Pearson method. The nominal P values for inter-group comparison were calculated using the Cochran-Mantel-Haenszel method considering randomization stratification factors that were the same as the primary efficacy analysis, and the 95% CI for the inter-group rate differences was estimated.

[2] = test system: patients with untreated advanced NSCLC; assay: Phase III clinical study, efficacy assessed by the investigator according to RECIST 1.1; assay type: in vivo, human; parameters: reduction of the risk of progression or death, compared to standard chemotherapy / increase of PFS rate at 6 months compared to control group / increase of PFS rate at 12 months compared to control group / increase in ORR compared to control group: concentration or dose not given beside the values
Experimental: as §1, §2
Tumor assessments were performed once every 6 weeks for the first 12 months of the study stage according to RECIST 1.1 and iRECIST; after 12 months, tumor assessments were performed every 9 weeks until progressive disease, initiation of a new anti-tumor therapy, intolerable toxicity, withdrawal of informed consent or death, 2 years of treatment with toripalimab, or other reasons as specified in the protocol, whichever occurred first.
Eligible subjects must (1) be patients with histologically and/or cytologically confirmed locally advanced (stage IIIB or IIIC) and stage IV non-small cell lung cancer that is inoperable and cannot receive radical concurrent chemoradiotherapy; (2) have at least one measurable lesion (according to RECIST 1.1); (3) have not received any systemic treatment (patients with recurrence more than 6 months after completion of prior neoadjuvant/adjuvant therapy may also be enrolled); (4) be aged between 18 and 75 years; (5) have ECOG of 0-1; (6) have an expected survival of ≥3 months; and (7) be available to provide tissue specimens for PD-L1 testing.
as §3
The progression-free survival rate and median progression-free survival of the JS001+first-line standard treatment group and the placebo+first-line standard treatment group at different time points after the start of treatment were estimated by the Kaplan-Meier method, and Kaplan-Meier curves were plotted. The 95% confidence interval for progression-free survival rate at different time points (6 months and 1 year) was estimated using the Greenwood formula. The 95% confidence interval for median progression-free survival was estimated using the Brookmeyer-Crowley method where the log-log function conversion was used to reach normal approximation. Statistical test was performed on the inter-group difference by a stratified log-rank method for the total population. Statistical test was performed on the inter-group difference by a non-stratified log-rank method for the subpopulations. A stratified COX proportional hazards model was used to estimate the inter-group hazard ratio (HR) and the corresponding 95% confidence interval, and the tied events were processed by an exact method. Stratification analysis was performed using 3 stratification factors in the randomization process, including: (1) PD-L1 expression (TC≥1% vs TC<1%); (2) smoking status (frequent smoking vs no smoking or little smoking); and (3) pathological type (squamous cell carcinoma vs non-squamous cell carcinoma).
For analysis of secondary efficacy endpoints OS, DOR, and TTR, the method described above as applied to the primary efficacy endpoint PFS was used. […]

[3] = patients with non-squamous cell carcinoma
[4] = patients with squamous cell carcinoma
[5] = patients with BOR reaching CR or PR, overall population
[6] = patients with non-squamous cell carcinoma, listed as test group
[7] = patients with squamous cell carcinoma, listed as test group

JS001 + standard first-line chemotherapy: toripalimab 240 mg Q3W plus albumin-bound paclitaxel+carboplatin (squamous) or pemetrexed+cisplatin/carboplatin (non-squamous)
HR for OS (test vs control) ([1]; ITT population): 0.81 | median OS ([1]; ITT population, as of Mar. 11, 2021, OS data not mature): 21.0 months | deaths reported ([1]; as of Mar. 11, 2021, median follow-up 9.82 months): 25.6% | HR for OS (test vs control) [1, 3]: 0.56 | HR for OS (test vs control) [1, 4]: 1.23 | median OS [1, 4]: 21.0 months | PFS rate at 6 months ([2]; ITT): 62.3% | PFS rate at 12 months ([2]; ITT): 32.6% | increase of PFS rate at 6 months compared to control group ([2]; ITT): 20.8% | increase of PFS rate at 12 months compared to control group ([2]; ITT): 19.5% | HR for PFS (test vs control) ([2]; ITT population, RECIST 1.1): 0.58 | PFS prolonged by, compared to standard chemotherapy ([2]; ITT population, RECIST 1.1): 2.7 months | reduction of the risk of progression or death, compared to standard chemotherapy ([2]; ITT population, RECIST 1.1): 42% | median PFS ([2]; ITT population, RECIST 1.1, interim analysis as of Nov. 17, 2020): 8.3 months | Best overall response: Complete response (CR) ([2]; non-squamous cell carcinoma): 0 N (%) | Best overall response: Deletion ([2]; non-squamous cell carcinoma): 8 (4.9) N (%) | Best overall response: Not evaluable (NE) ([2]; non-squamous cell carcinoma): 0 N (%) | Best overall response: Partial response (PR) ([2]; non-squamous cell carcinoma): 95 (58.6) N (%) | Best overall response: Progressive disease (PD) ([2]; non-squamous cell carcinoma): 5 (3.1) N (%) | Objective response rate (ORR) ([2]; non-squamous cell carcinoma): 95 (58.6) N (%) | DCR ([2]; overall population): 90.9% | DOR prolonged by, compared to control group ([2]; overall population): 4.1 months | HR for DOR (test vs control) ([2]; overall population): 0.56 | increase in ORR compared to control group ([2]; overall population): 21.7% | ORR ([2]; overall population, RECIST v1.1): 63.4% | median DOR [2, 5]: 8.3 months | median TTR [2, 5]: 1.5 months | HR for DOR (test vs control) [2, 3]: 0.63 | HR for PFS (test vs control) [2, 3]: 0.59 | ORR [2, 3]: 58.6% | increase in ORR compared to control group [2, 3]: 32.1% | median DOR (95% confidence interval) [2, 3]: 8.6 (6.9, NE) months | median TTR (95% confidence interval) [2, 3]: 1.4 (1.4, 1.9) months | median PFS ([2]; patients with non-squamous cell carcinoma, RECIST 1.1): 8.4 months | median DOR (95% confidence interval) [2, 6]: 8.6 months | median TTR (95% confidence interval) [2, 6]: 1.4 months | HR for DOR (test vs control) [2, 4]: 0.46 | HR for PFS (test vs control) [2, 4]: 0.55 | ORR [2, 4]: 68.7% | increase in ORR compared to control group [2, 4]: 9.8% | median DOR (95% confidence interval) [2, 4]: 6.9 (4.5, NE) months | median TTR (95% confidence interval) [2, 4]: 1.5 (1.4, 1.6) months | median PFS ([2]; patients with squamous cell carcinoma, RECIST 1.1): 7.1 months | median DOR (95% confidence interval) [2, 7]: 6.9 months | median TTR (95% confidence interval) [2, 7]: 1.5 months | Best overall response: Complete response (CR) ([2]; squamous cell carcinoma): 0 N (%) | Best overall response: Deletion ([2]; squamous cell carcinoma): 8 (5.4) N (%) | Best overall response: Not evaluable (NE) ([2]; squamous cell carcinoma): 1 (0.7) N (%) | Best overall response: Partial response (PR) ([2]; squamous cell carcinoma): 101 (68.7) N (%) | Best overall response: Progressive disease (PD) ([2]; squamous cell carcinoma): 6 (4.1) N (%) | Objective response rate (ORR) ([2]; squamous cell carcinoma): 101 (68.7) N (%)
